Measured values from EP2601963B1, “N-ISOVALEROYL-L-GLUTAMYL-L-TRYPTOPHAN AS AN AGENT INHIBITING THE FORMATION OF ULCERS IN THE STOMACH AND THE DUODENUM” (Obshestvo S Ogranichennoj Otvetstvennostju "CytoNIR", priority 2010, dated 2015).

What was measured:
Type in all cases: in vivo, male Wistar rats
[1] = test system: indomethacin-induced ulcers; assay: Indomethacin-induced ulcer model, therapeutic treatment: healing of gastric lesions; set-up: key to gastroprotective activity (first value, GA1) / GA1 (gastroprotective activity calculated for number of lesions): GA1 = PI of control group / PI of experimental group; key to gastroprotective activity (second value, GA2): GA2 = UI of control group / UI of experimental group; key to Ulcer Index: UI = average lesion area in group × % animals with lesions / 100; Lesion Size: unit not given here
Method: (§1) All studies were conducted on male Wistar rats weighing 220 ± 20 g, obtained from Rappolovo nursery (Leningrad oblast). For 14 days prior to the experiment, the animals were held in isolation. The animals were handled in accordance with the European Convention for the Protection of Vertebrate Animals used for Experimental and Other Scientific Purposes (Strasburg, 1986). The animals were held in standard plastic cages and fed a standard diet of PK120-3 (granulated feed in accordance with order # 1179 M3 USSR 10/10/1983) with a free access to water.
(§2) Animals' body weight changes were monitored throughout the experiment. The experimental animals were then sacrificed by decapitation, and their blood was collected in test tubes. The stomachs were extracted, dissected along the major curve, rinsed with cold saline solution, and the mucosa was carefully examined through a magnifying glass under bright lights. The mucosa was inspected for color, the presence of hyperemia and its intensity. The number of lesions, which were differentiated into small round (less than 1 mm), linear, and large lesions (more than 1mm) and the size of the area they covered were calculated. The average number of lesions per one animal in a group and the percentage of animals with ulcers were also calculated. Pauls Index (PI) was used as an integral indicator of the number of lesions and was calculated as follows: • PI = average number of lesions in a group x % of animals with lesions/100 [Pauls F., Wick A.M.,Mac. Key E.M. et al. An assau method for anti ulcer substances // Gastroenterology.- 1947. #8.- p.p.774 - 782]. Ulcer index UI was calculated as: UI = average lesion area size in the group x % of animals with lesions/100; gastroprotective activity GA1 was calculated as: GA1 = PI of the control group/PI of the experimental group, GA2 = UI of the control group/UI of the experimental group.
(§3) Five groups of 10 animals per group were prepared for the experiment as described in Example 1.
(§4) In each series of the experiments, the animals were divided into experimental and control groups at 10 animals per group. The proposed medication or a comparator drug were orally administered to the animals in the experimental group, and the control animals were given distilled water in the same amount. • control group received distilled water per os; • experimental group 1 received 0.1 mkg/kg isovaleroyl glutamyl tryptophan; • experimental group 2 received 10 mkg/kg isovaleroyl glutamyl tryptophan; • experimental group 3 received 200 mkg/kg of the comparator drug Sucralfate.
(§5) 2 ml/kg of the ulcerogenic dose of indomethacin equal to 30 mg/kg was administered intraperitoneally. The treatment started 24 hrs. post indomethacin administration and continued for 5 days. The animals in the experimental groups received N-isovaleroyl-L-glutamyl-L-tryptophan or the comparator drug Sucralfate, and the control group received distilled water.

[2] = test system: indomethacin-induced ulcers; assay: as above
Method: as §1
as §2, with “group. The proposed drug was considered active when GA ≥ 2.” for “group.”
as §3, §4, §5

[3] = test system: indomethacin-induced gastric ulcers; assay: Indomethacin-induced ulcer model, preventive treatment: gastric lesions; set-up: key to GA1 (gastroprotective activity calculated for number of lesions): GA1 = PI of control group / PI of experimental group; key to GA2 (gastroprotective activity calculated for lesion size): GA2 = UI of control group / UI of experimental group; key to Ulcer Index: UI = average lesion area size x % of animals with lesions/100; Small round Size / Total Size / Large round Size / Linear Size / Lesion Size: unit not given here
Method: as §1
as §2, with “group. The proposed drug was considered active when GA ≥ 2.” for “group.”
as §3
In each series of experiments, the animals were divided into experimental and control groups at 10 animals per group. The animals in the experimental group were orally administered the proposed medication or a comparator drug, and the control animals were given distilled water in the same amount. • control group received distilled water per os; • experimental group 1 received 0.1 mkg/kg N-isovaleroyl-L-glutamyl-L-tryptophan; • experimental group 2 received 10 mkg/kg N-isovaleroyl-L-glutamyl-L-tryptophan; • experimental group 3 received 200 mkg/kg of the comparator drug Sucralfate.
The efficacy of the course of preventive treatment with the claimed composition was evaluated 24 hrs. post indomethacin administration. The study was conducted as in Example 1.

[4] = 0.1 mkg/kg, treatment after Indomethacin
[5] = Indomethacin 30 mg/kg + 10 mkg/kg, treatment 5 days
[6] = Indomethacin 30 mg/kg + 200 mg/kg, treatment 5 days
[7] = 200 mg/kg + stress (so in the source)
[8] = 200 mg/kg, indomethacin-induced ulcers

## N-isovaleroyl-L-glutamyl-L-tryptophan [VGT preparation]
[1]; [4]
  gastroprotective activity (first value, GA1): 2
  gastroprotective activity (second value, GA2): 2.6
[1]; [5]
  # Lesions: 6.2 ± 1.3
  % Animals with Ulcers: 100%
  GA1 (gastroprotective activity calculated for number of lesions): 1.4
  Lesion Size: 23.6 ± 6.1
  PI: 6.2
  Ulcer Index: 23.6

## aluminum complex of beta-D-fructofuranosyl-alpha-D-glucopyranoside octakis (hydrosulfate) [Sucralfate]
[2]; [6]
  # Lesions: 3.3 ± 1.0
  % Animals with Ulcers: 85.7%
  GA1 (gastroprotective activity calculated for number of lesions): 3.0
  GA2 (gastroprotective activity calculated for lesion size): 3.3
  Lesion Size: 11.5 ± 4.26
  PI: 2.8
  Ulcer Index: 9.86
[2]; treatment after Indomethacin
  animals found to have lesions: 85.7%
[3]; [7]
  # Lesions: 5.4 ± 1.4
  % Animals with Ulcers: 80%
  GA1 (gastroprotective activity calculated for number of lesions): 4.93
  GA2 (gastroprotective activity calculated for lesion size): 8.56
  Lesion Size: 3.3 ± 1.2
  PI: 4.32
  Ulcer Index: 2.64
[3]; [8]
  Large round Amount: 2.4 ± 0.8
  Large round Size: 1.0 ± 0.4
  Linear Amount: 1.2 ± 0.4
  Linear Size: 1.8 ± 0.9
  Small round Amount: 1.8 ± 0.6
  Small round Size: 0.5 ± 0.2
  Total Amount: 5.4 ± 1.4
  Total Size: 3.3 ± 1.2
